In PMC6858848 (Bioorganic & medicinal chemistry letters, 2019):
Converted amounts (≈) assume the structure as drawn.

What was measured:
[1] = physchem
[2] = cited from earlier work
[3] = tested on: hepG2 cells; conditions: CellTiter-Glo
[4] = tested on: 40 targets, mostly GPCRs; conditions: 10 μM, NIMH PDSP
[5] = Acid stability; format: physicochemical; conditions: HPLC peak areas (254 nm) after heating at 60°C in 1:1 MeCN:0.2N aq. HCl for 24 h, 0.3 mM
[6] = target: Kv7.2 channels (Homo sapiens, UniProt O43526); experiment: Kv7.2 thallium flux assay in HEK 293 cells; format: cell-based; conditions: for fold lower potency in Kv7.2 assay relative to DMP 543: compared with DMP 543
Kv7.2 channels, sequence (O43526 whole entry): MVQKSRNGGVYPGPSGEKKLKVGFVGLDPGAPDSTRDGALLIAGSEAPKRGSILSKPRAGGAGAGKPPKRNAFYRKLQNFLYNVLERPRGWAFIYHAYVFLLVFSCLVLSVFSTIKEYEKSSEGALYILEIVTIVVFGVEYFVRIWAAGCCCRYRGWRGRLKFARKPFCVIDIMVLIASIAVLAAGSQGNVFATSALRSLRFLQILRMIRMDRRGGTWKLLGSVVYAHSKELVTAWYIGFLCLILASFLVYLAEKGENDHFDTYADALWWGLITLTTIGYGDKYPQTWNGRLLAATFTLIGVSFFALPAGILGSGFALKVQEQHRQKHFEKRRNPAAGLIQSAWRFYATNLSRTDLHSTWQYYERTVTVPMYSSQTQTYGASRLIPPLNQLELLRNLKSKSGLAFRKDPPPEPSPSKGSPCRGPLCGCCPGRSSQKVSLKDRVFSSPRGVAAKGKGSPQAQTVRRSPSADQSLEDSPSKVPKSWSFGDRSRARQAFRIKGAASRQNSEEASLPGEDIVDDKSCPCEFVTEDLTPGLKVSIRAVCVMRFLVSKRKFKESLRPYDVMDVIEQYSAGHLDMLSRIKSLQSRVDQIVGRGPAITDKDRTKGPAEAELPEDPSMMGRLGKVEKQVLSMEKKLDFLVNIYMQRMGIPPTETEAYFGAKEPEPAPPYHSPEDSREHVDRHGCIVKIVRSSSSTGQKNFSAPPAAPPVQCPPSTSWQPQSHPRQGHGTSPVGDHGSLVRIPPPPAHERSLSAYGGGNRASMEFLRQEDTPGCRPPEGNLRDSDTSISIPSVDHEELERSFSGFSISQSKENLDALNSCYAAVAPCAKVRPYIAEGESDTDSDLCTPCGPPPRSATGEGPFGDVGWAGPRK

[7] = target: hERG channels (Homo sapiens, UniProt Q12809); experiment: hERG thallium flux assay in HEK 293 cells; conditions: for hERG flux IC50: HEK 293 cells expressing hERG channels
hERG channels, sequence (Q12809 whole entry): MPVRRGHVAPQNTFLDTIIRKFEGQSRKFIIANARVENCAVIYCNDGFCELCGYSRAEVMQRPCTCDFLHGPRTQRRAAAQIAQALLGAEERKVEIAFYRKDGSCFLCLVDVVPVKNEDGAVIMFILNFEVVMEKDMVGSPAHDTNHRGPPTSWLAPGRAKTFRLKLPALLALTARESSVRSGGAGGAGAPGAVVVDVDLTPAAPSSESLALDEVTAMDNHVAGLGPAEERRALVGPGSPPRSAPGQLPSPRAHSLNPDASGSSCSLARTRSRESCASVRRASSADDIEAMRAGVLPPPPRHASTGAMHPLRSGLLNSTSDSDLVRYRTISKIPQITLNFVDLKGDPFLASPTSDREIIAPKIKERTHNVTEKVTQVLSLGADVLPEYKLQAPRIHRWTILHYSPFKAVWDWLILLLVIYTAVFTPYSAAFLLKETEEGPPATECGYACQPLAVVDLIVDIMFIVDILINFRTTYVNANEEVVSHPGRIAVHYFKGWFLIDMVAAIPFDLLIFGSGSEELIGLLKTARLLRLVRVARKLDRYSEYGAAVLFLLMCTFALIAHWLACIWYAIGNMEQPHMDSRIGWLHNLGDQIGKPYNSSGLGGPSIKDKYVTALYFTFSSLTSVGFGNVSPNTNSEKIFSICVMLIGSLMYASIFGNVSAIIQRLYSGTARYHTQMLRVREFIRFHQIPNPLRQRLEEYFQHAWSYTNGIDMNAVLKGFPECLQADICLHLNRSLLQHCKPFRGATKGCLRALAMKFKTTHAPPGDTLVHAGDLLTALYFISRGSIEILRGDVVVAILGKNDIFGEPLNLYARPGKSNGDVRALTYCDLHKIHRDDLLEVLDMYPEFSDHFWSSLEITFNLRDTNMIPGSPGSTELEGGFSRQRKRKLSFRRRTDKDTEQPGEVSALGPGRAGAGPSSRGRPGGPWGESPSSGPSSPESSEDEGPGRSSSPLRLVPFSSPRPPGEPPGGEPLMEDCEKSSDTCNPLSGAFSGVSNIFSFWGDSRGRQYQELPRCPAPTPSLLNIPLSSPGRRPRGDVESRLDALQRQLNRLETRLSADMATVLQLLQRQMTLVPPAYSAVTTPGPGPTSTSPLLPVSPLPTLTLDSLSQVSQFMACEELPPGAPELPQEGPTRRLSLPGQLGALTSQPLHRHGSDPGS

[8] = tested on: Alzheimer's patients; conditions: cited from earlier work
[9] = tested on: ACh release; conditions: read-out: ACh release EC50; cited from earlier work
[10] = tested on: mouse model of Parkinson's disease; conditions: cited from earlier work

In the case of `O=C1c2ccccc2C(Cc2ccnc(F)c2)(Cc2ccnc(F)c2)c2ccccc21` [DMP 543, 10,10-Bis[(2-Fluoro-4-Pyridinyl)Methyl]-9(10 H)-Anthracenone], the solubility kinetic [1] is listed as 22 µM (≈ 9.07 µg/mL), the aqueous solubility [2] is listed as 6 µM (≈ 2.47 µg/mL) and the “cytotoxicity CC50, hepG2 cells” value [3] is listed as “low cytotoxicity”. The “Off-target activities: number of targets (of 40) with >30% binding” value [4] was 6.
With `O=C1c2ccccc2C(Cc2ccnnc2)(Cc2c(F)cncc2F)c2ccccc21` [JDP-107 (18)] the “acid stability, percent remaining” value [5] was “no degradation”, the IC50 [6] was 180 nM and the “fold lower potency in Kv7.2 assay relative to DMP 543” value [6] was “approximately 3 fold”. For the same molecule, the IC50 [7] was greater than 32000 nM, the “hERG channel inhibition at 1 μM” value ([7]; 1 μM, thallium flux) was “no inhibition” and the “Off-target activities: number of targets (of 40) with >30% binding” value [4] was 5.
For `O=C1N(c2ccccc2)c2ccccc2C1(Cc1ccncc1)Cc1ccncc1` [Linopirdine, 3,3-Bis(4-Pyrindinylmethyl)-1-Phenylindolin-2-One], the “efficacy as cognitive enhancer in phase 3 trial” value [8] is listed as “ineffective” and the “tolerability in phase 3 trial” value [8] is listed as “well-tolerated”.
For `O=C1c2ccccc2C(Cc2ccncc2)(Cc2ccncc2)c2ccccc21` [XE991, 10,10-Bis(4-Pyridinylmethyl)-9(10H)-Anthracenone], the EC50 [9] is listed as 400 nM, the IC50 [7] is listed as greater than 32000 nM and the neuroprotection [10] is listed as “acts as a neuroprotective agent”.
In the case of `O=C1c2ccccc2C(Cc2ccnc(C(F)(F)F)c2)(Cc2ccnc(C(F)(F)F)c2)c2ccccc21` [compound 5], the “fold lower potency in Kv7.2 assay relative to DMP 543” value [6] is reported as ~ 100 fold and the “hERG flux IC50” value ([7]; thallium flux) is reported as “inactive”.
For `O=C1c2ccccc2C(Cc2c(F)cncc2F)(Cc2c(F)cncc2F)c2ccccc21` [compound 6], the “acid stability, percent remaining” value [5] was “no degradation”.
In the case of `O=C1c2ccccc2C(Cc2ccnnc2)(Cc2ccnnc2)c2ccccc21` [compound 7], the “hERG flux IC50” value ([7]; thallium flux) is reported as “inactive”.
In the case of `Cc1cc(CC2(Cc3ccnc(C)c3)c3ccccc3C(=O)c3ccccc32)ccn1` [compound 8], the “hERG flux IC50” value ([7]; thallium flux) is reported as “inactive”.
